# Measured values from US20110207796A1, “ALPHA-SYNUCLEIN KINASE” (Elan Pharma International Limited, priority 2008, published 2011).
# Read-outs that look alike come from different tables or passages of the source.
# How the values were obtained:
# [1] = system: brain p-synuclein (p-Ser129); test: in vivo inhibition of phosphorylation of synuclein in wild-type FVB mice, brain western blot; parameters: species or system mouse; settings: IV tail vein 50 mg/kg
# Experimental: The examples above describe the identification and in vitro validation of polo-like kinase 2 (PLK2) as an α-synuclein Ser 129-specific kinase. This example describes the ability of a kinase inhibitor (BI 2561) to decrease phosphorylation of α-synuclein in vivo. Wild-type FVB mice were treated by IV tail vein with 50 mg/kg of the PLK-specific inhibitor. Total α-synuclein and p-synuclein levels in brain (p-Ser129) were analyzed by western blot.
# [2] = system: synuclein phosphorylation (serine-129); test: inhibition of synuclein phosphorylation across the cellular paradigms (primary neuronal cultures and 293 cells); format: cell-based, mouse, rat and human; settings: Homo sapiens
# [3] = system: synuclein phosphorylation by constitutively active PLK2 (caPLK2); test: kinase inhibitor treatment of RVM cultures transduced with E46K-synuclein plus ca-PLK2; format: cell-based; settings: rat ventral mesencephalon cultures
# Experimental: (§1) Rat Ventral Mesencephalon (RVM) cultures were prepared from E15 Wistar rats. The RVM cultures were cultured for 2 days and transduced with 0.75 MOI E46K-Synuclein lentivirus alone, or 0.75 MOI E46K-Synuclein lentivirus plus 0.75 MOI ca-PLK2 lentivirus. […] Transduced cultures were maintained in neuronal media with B27/1% FBS and 37° C./5% CO2 until treated with inhibitors. On DIV 17 (which corresponds to 15 days after viral transduction of the cultures) cells were treated with inhibitors for two hours. Cells were then harvested as detailed above in neuronal media with B27/1% FBS. A Micro BCA (Pierce) total protein assay, and total synuclein and phospho-synuclein ELISAs were performed on each plate of treated cells using standard methods.
# PLK2 [4] = target: T1, PLK2 (Homo sapiens, UniProt Q9NYY3); test: HEK-293 cells overexpressing synuclein and PLK2, inhibition of synuclein phosphorylation; format: cell-based; parameters: expressed in transfected cells; host or cells: HEK-293; settings: for Rank Order of Potency Based on Percent Inhibition of Synuclein Phosphorylation, Synuclein + PLK2: HEK-293, Table 22
# T1 sequence (Q9NYY3 whole entry): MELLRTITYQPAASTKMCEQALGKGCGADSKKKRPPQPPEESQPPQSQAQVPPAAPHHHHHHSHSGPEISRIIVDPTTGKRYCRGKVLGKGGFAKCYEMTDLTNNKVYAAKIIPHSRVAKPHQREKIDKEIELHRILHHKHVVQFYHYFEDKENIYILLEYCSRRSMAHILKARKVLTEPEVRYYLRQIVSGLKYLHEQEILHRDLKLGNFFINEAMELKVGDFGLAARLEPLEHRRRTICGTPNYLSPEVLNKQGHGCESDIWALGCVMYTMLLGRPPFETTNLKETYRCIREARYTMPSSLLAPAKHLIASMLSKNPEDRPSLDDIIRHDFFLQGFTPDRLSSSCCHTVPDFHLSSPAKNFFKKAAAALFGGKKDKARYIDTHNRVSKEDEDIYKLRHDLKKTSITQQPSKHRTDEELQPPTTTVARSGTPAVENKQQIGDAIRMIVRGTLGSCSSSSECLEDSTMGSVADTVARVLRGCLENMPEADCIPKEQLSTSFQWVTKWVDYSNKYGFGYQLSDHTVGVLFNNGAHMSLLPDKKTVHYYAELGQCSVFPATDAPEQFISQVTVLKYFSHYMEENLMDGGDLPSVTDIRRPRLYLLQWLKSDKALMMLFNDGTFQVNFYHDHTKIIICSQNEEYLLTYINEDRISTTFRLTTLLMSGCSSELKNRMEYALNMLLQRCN
# Experimental: (§2) All vectors had the sequence coding for the protein of interest. Transfection was accomplished using Lipofectamine 2000 (Invitrogen, Carlsbad, Calif.) with 0.08 μg vector. Cells were washed and harvested 48 hours post-transfection. A Micro BCA (Pierce) total protein assay and total synuclein and phospho-synuclein ELISAs were performed on each plate of treated cells.
# PLK2 [5] = target: T1, PLK2; test: in vitro biochemical assay of PLK2-driven synuclein phosphorylation
# Experimental: The reaction was incubated at 37° C. The activity was analyzed by autoradiography.
# In vitro biochemical assays using each of the four PLK family members as the kinase to phosphorylate synuclein were conducted.
# [6] = system: synuclein phosphorylation by endogenous kinase; test: kinase inhibitor treatment of rat ventral mesencephalon (RVM) cultures transduced with E46K-synuclein; format: cell-based
# Experimental: as §1
# [7] = system: endogenous kinase (synuclein phosphorylation); test: HEK-293 cells overexpressing synuclein with empty vector, inhibition of synuclein phosphorylation; format: cell-based, human; settings: for rank order of potency, Endogenous Kinase (293): Table 19; for EC50: Homo sapiens
# Experimental: as §2
# [8] = system: synuclein phosphorylation by endogenous kinase; test: kinase inhibitor treatment of mouse cortical cultures (MCC), total and phospho-synuclein ELISA; format: cell-based
# Experimental: Mouse cortical cultures from fetal (i) Swiss-Webster, (ii) C56BL/6 WT and (iii) C56BL/6 E46K-Synuclein Trangenic mice were prepared and maintained in B27/DMEM/1% Penicillin-Streptomycin at 37° C./10% CO2 for three to fourteen days and then treated with kinase inhibitors.
# Cultures were exposed to inhibitors for two hours in B27/DMEM/1% Penicillin-Streptomycin. Cells were immediately washed in 100 μL of PBS plus Mg^2+ and Ca^2+, and harvested in ice-cold CEB minus EGTA plus protease inhibitors, frozen on dry ice and stored at −80° C. until processed. A Micro BCA (Pierce) total protein assay, and total synuclein and phospho-synuclein ELISAs were performed on each plate of treated cells using standard methods.
# PLK1 = target: T2, PLK1 (Homo sapiens, UniProt P53350); test: HEK-293 cells overexpressing synuclein and PLK1, inhibition of synuclein phosphorylation; format: cell-based
# T2 construct: expressed in transfected cells; host or cells: HEK-293
# T2 sequence (P53350 whole entry): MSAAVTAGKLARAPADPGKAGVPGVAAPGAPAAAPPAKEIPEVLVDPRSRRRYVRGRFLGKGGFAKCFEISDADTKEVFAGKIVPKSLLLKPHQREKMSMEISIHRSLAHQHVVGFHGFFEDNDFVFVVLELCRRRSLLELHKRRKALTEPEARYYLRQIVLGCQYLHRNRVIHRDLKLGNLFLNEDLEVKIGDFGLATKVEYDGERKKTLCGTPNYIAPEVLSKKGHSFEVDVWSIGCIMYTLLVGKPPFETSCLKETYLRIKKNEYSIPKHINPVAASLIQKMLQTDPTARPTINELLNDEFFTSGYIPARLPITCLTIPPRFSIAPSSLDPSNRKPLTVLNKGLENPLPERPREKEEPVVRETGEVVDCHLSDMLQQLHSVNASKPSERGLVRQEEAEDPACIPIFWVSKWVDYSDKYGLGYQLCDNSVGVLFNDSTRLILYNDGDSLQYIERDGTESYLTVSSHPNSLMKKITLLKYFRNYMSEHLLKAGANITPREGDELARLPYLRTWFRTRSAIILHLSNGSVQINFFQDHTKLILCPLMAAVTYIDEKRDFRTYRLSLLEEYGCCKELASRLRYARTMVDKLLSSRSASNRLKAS
# Experimental: as §2
# PLK3 = target: T3, PLK3 (Homo sapiens, UniProt Q9H4B4); test: HEK-293 cells overexpressing synuclein and PLK3, inhibition of synuclein phosphorylation; format: cell-based; settings: for EC50: HEK-293, Example 16, Table 21, read-out: EC50 Based on the Percent Inhibition of Synuclein Phosphorylation, Synuclein + PLK3; for Rank Order of Potency Based on Percent Inhibition of Synuclein Phosphorylation, Synuclein + PLK3: HEK-293, Table 22
# T3 construct: expressed in transfected cells; host or cells: HEK-293
# T3 sequence (Q9H4B4 whole entry): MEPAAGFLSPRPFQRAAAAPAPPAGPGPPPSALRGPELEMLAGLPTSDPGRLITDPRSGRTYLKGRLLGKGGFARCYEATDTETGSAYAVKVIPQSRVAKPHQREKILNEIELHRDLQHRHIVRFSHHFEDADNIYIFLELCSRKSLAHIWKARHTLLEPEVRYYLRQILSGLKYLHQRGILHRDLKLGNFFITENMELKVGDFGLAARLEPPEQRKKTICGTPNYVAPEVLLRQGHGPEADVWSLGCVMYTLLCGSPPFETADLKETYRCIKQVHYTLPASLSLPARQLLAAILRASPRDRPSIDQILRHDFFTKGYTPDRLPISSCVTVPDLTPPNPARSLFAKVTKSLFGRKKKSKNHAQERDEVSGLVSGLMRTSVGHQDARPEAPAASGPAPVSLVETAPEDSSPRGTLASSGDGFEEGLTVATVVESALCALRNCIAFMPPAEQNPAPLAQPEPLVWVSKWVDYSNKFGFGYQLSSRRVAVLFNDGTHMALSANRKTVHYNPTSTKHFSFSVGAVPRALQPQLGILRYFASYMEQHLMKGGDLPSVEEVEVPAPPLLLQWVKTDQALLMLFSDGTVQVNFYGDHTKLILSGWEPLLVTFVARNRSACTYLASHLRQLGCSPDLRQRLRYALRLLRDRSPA
# Experimental: as §2
# PLK4 = target: T4, PLK4 (Homo sapiens, UniProt O00444); test: HEK-293 cells overexpressing synuclein and PLK4, inhibition of synuclein phosphorylation; format: cell-based
# T4 sequence (O00444 1-970): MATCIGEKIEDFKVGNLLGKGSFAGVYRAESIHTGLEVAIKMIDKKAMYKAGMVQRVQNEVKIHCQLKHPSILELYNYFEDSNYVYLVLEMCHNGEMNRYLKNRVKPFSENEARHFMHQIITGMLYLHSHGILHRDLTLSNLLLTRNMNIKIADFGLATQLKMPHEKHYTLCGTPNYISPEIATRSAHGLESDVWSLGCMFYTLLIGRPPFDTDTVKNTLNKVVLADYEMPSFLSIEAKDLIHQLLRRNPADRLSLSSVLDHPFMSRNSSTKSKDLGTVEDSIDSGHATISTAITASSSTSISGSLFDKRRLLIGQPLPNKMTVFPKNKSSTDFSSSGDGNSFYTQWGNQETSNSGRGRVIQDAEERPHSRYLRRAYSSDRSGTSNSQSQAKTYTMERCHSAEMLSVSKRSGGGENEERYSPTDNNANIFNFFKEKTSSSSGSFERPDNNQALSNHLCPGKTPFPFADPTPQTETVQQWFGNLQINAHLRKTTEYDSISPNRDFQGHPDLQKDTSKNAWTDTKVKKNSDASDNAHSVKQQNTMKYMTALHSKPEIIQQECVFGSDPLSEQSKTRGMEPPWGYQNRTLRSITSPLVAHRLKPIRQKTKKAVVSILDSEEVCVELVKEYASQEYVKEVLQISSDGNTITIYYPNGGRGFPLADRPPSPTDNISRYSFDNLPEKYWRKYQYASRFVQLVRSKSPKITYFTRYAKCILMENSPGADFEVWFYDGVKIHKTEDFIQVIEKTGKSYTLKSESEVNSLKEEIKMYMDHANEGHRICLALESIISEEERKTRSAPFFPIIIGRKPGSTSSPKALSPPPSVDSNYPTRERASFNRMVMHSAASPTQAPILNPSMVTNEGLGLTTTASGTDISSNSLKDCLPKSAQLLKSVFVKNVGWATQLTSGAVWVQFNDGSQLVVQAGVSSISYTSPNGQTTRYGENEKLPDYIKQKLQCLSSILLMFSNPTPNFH
# Experimental: as §2
# [9] = 293 cells, Table 18, read-out: EC50, Over-Expressed PLK2 (293)
# [10] = PLK2-driven synuclein phosphorylation, read-out: IC50 in the in vitro biochemical assay
# [11] = HEK293, 293 cells, Table 18, read-out: EC50, Endogenous Kinase (293)
# [12] = E46K-Synuclein transgenic mouse cortical cultures
# [13] = E46K-Synuclein transgenic mouse cortical cultures, read-out: EC50, E46K-Syn TG MCC
# [14] = Swiss-Webster mouse cortical cultures
# [15] = Swiss-Webster mouse cortical cultures, read-out: EC50, Swiss-Webster MCC
# [16] = WT mouse cortical cultures, read-out: EC50, WT-MCC
# [17] = HEK293, most of the cellular paradigms / cell types tested, read-out: EC50 inhibition of synuclein phosphorylation, cellular paradigms
# [18] = HEK293, HEK-293, Example 16, Table 21, read-out: EC50 Based on the Percent Inhibition of Synuclein Phosphorylation, Synuclein + Vector
SMILES,EC50 [3] [µM],"rank order of potency, RVM E46K-Synuclein caPLK2 [3]",EC50 (PLK2 [4]; [9]) [µM],IC50 (PLK2 [5]; [10]) [µM],EC50 [6] [µM],"rank order of potency, RVM E46K-Synuclein [6]","rank order of potency, Endogenous Kinase (293) ([7]; 293 cells)","EC50 [7, 11] [µM]","rank order of potency, E46K-Syn TG MCC [8, 12]","EC50 [8, 13] [µM]","rank order of potency, Swiss-Webster MCC [8, 14]","EC50 [8, 15] [µM]","rank order of potency, WT-MCC ([8]; WT mouse cortical cultures)","EC50 [8, 16] [µM]","EC50 [2, 17] [µM]",EC50 (PLK3) [µM],"Rank Order of Potency Based on Percent Inhibition of Synuclein Phosphorylation, Synuclein + PLK3 (PLK3)","rank order of potency, Over-Expressed PLK2 (293) (PLK2 [4]; 293 cells, Table 19)","Rank Order of Potency Based on Percent Inhibition of Synuclein Phosphorylation, Synuclein + PLK2 (PLK2 [4])","rank order of potency, Straight Biochemical (PLK2 [5]; rank among 8 inhibitors)",also measured
CC[C@@H]1C(=O)N(C)c2cnc(Nc3ccc(C(=O)NC4CCN(C)CC4)cc3OC)nc2N1C1CCCC1 [BI 2561],–,–,–,–,–,–,–,–,–,–,–,–,–,–,–,–,–,–,–,–,"total α-synuclein levels in brain, western blot [1]: no effect; brain p-synuclein levels (p-Ser129), western blot ([1]; from 1 hour to 6 hours after treatment): clear decrease"
COC(=O)[C@@]1(O)C[C@H]2O[C@]1(C)n1c3ccccc3c3c4c(c5c6ccccc6n2c5c31)C(=O)NC4 [Compound K252A],3.5,2,7.1,> 10,3.2,3,2,3.6,2,3.1,2,2.9,2,3,–,–,–,–,–,–,"EC50 ([2]; HEK293, read-out: EC50 inhibition of synuclein phosphorylation, cellular paradigms): 3 to 7 µM; rank order of potency, Over-Expressed PLK2 (293) (PLK2 [4]): 2; rank order of potency, Straight Biochemical (PLK2 [5]): 4; IC50 (PLK2 [5]; in vitro PLK2-driven synuclein phosphorylation, read-out: IC50, Straight Biochemical): > 10 µM"
"CN(C)c1nc2c(Br)c(Br)c(Br)c(Br)c2[nH]1 [DMAT, 2-Dimethylamino-4,5,6,7-tetrabromo-1H-benzimidazole]",28.5,4,18.6,2.07,20,4,3,33,4,16.6,4,21.6,4,18.7,16 to 33,37.3,2,4,2,2,"EC50 (PLK1; HEK-293, Example 16, Table 21, read-out: EC50 Based on the Percent Inhibition of Synuclein Phosphorylation, Synuclein + PLK1): 27.2 µM; Rank Order of Potency Based on Percent Inhibition of Synuclein Phosphorylation, Synuclein + PLK1 (PLK1; HEK-293, Table 22): 3; Rank Order of Potency Based on Percent Inhibition of Synuclein Phosphorylation, Synuclein + PLK4 (PLK4; HEK-293, Table 22): 2; EC50 (PLK2 [4]; HEK-293, Example 16, Table 21, read-out: EC50 Based on the Percent Inhibition of Synuclein Phosphorylation, Synuclein + PLK2): 13.9 µM; Rank Order of Potency Based on Percent Inhibition of Synuclein Phosphorylation, Synuclein + Vector ([7]; HEK-293, Table 22): 2; EC50 [7, 18]: 55.7 µM; EC50 ([7]; HEK293, HEK-293, synuclein only, read-out: EC50 synuclein phosphorylation, endogenous kinase): 56 µM"
NC(=O)c1sc2c([N+](=O)[O-])cc(C(F)(F)F)cc2[n+]1[O-] [ELN-481080],25.2,–,38,7.7,~100,–,4,–,–,–,–,–,–,–,12 to 38,> 100,3,5,3,3,"EC50 synuclein phosphorylation, over-expressed PLK3 (PLK3; HEK-293): not reached; inhibition of synuclein phosphorylation, over-expressed PLK3 (PLK3; at concentrations of 30-100 μM): 30-40%; EC50 synuclein phosphorylation, over-expressed PLK4 (PLK4; HEK-293): not reached; EC50 ([7]; HEK293, read-out: EC50, Endogenous Kinase (293)): ~100 µM; EC50 ([7]; HEK293, read-out: EC50 synuclein phosphorylation, endogenous kinase, previous experiments): ~100 µM; EC50 [7, 18]: > 100 µM"
